# Earlier results, collected in patent US20140017308A1, “COMPOSITIONS COMPRISING A FATTY ACID OIL MIXTURE, A FREE FATTY ACID, AND A STATIN” (Pronova Biopharma Norge AS, priority 2010, published 2014).
# Conditions: in vivo
row,Compound,half-life
1,CC(C)c1nc(N(C)S(C)(=O)=O)nc(-c2ccc(F)cc2)c1/C=C/[C@@H](O)C[C@@H](O)CC(=O)O [rosuvastatin],about 20 hours
2,CC[C@H](C)C(=O)O[C@H]1C[C@H](O)C=C2C=C[C@H](C)[C@H](CC[C@@H](O)C[C@@H](O)CC(=O)O)[C@H]21 [pravastatin],about 0.8 hours
3,CCC(C)(C)C(=O)O[C@H]1C[C@@H](C)C=C2C=C[C@H](C)[C@H](CC[C@@H]3C[C@@H](O)CC(=O)O3)[C@H]21 [simvastatin],2 to 3 h
